Tests used:
Type in all cases: in vivo
[1] = tested on: oval-leafed pondweed; experiment: Test Example 2: weedkilling efficacy, growth period weed treatment in the submerged state; C: oval-leafed pondweed
Procedure, shortened: (§1)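 Seedlings at 1-2 leaves in 4 cm-deep submerged alluvial soil received emulsion formulations on the water surface, dosed per hectare; effects were judged 3 weeks on.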

[2] = tested on: oval-leafed pondweed; experiment: Test Example 1: weedkilling efficacy, preemergent weed treatment in the submerged state; C: oval-leafed pondweed
Procedure, shortened: (§2)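 Pre-emergence paddy test: weed seeds sown in submerged alluvial soil (4 cm water), 2.5-leaf rice transplanted, water-diluted emulsion applied to water surface at sowing at stated g/ha. Scored at 3 weeks, greenhouse 25–30 °C.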

[3] = tested on: redroot pigweed; experiment: Test Example 3: weedkilling efficacy through soil treatment; L: redroot pigweed; conditions: soil treatment, treatment dosage 315 g/ha
Description: (§3) Weedkilling Efficacy Test Through Soil Treatment
(§4) Sterilized diluvial soil was introduced into 21 cm long, 13 cm wide, 7 cm deep plastic boxes, and seeds of crabgrass, green foxtail, barnyard grass, wild oat, black-grass, Italian ryegrass, common wind-grass, Indian mallow, redroot pigweed, fig-leafed goosefoot, chickweed, catchweed, birds-eye speedwell, corn, soybean, rice, wheat, beet and rapeseed were each spot-sown, and covered with about 1.5 cm of soil. Next, emulsions of compounds of the present invention prepared according to compounding example 2 were diluted with water to give the specified dosages, and applied uniformly onto the soil surface with a small sprayer. The plants were grown by placing the plastic boxes in a greenhouse at 25 to 30° C., and 3 weeks after the pesticide treatment the effect on each type of plant was investigated on the basis of the assessment criteria of test example 1.
(§5) A: barnyard grass, B: bulrush, C: oval-leafed pondweed, D: crabgrass, E: green foxtail, F: barnyard grass, G: wild oat, H: black-grass, I: Italian ryegrass, J: common wind-grass, K: Indian mallow, L: redroot pigweed, M: fig-leafed goosefoot, N: chickweed, O: catchweed, p: birds-eye speedwell, a: transplanted rice, b: directly sown rice, c: corn, d: soybean, e: wheat, f: beet, g: rapeseed
(§6) Further, pesticide dosage (g/ha) indicates the concentration regulated such that treatment was with only the stated number of grams (g), when calculated per hectare (ha).

[4] = tested on: transplanted rice; experiment: Test Example 1: preemergent weed treatment in the submerged state, effect on crop; a: transplanted rice
Procedure, shortened: as §2

[5] = tested on: green foxtail; experiment: Test Example 3: weedkilling efficacy through soil treatment; E: green foxtail; conditions: soil treatment, treatment dosage 315 g/ha
Description: as §3, §4, §5, §6

[6] = tested on: bulrush; experiment: Test Example 2: weedkilling efficacy, growth period weed treatment in the submerged state; B: bulrush
Procedure, shortened: as §1

[7] = tested on: beet; experiment: Test Example 3: soil treatment, effect on crop; f: beet; conditions: soil treatment, treatment dosage 315 g/ha
Description: as §3, §4, §5, §6

[8] = tested on: black-grass; experiment: Test Example 3: weedkilling efficacy through soil treatment; H: black-grass; conditions: soil treatment, treatment dosage 315 g/ha
Description: as §3, §4, §5, §6

[9] = tested on: Indian mallow; experiment: Test Example 3: weedkilling efficacy through soil treatment; K: Indian mallow; conditions: soil treatment, treatment dosage 315 g/ha
Description: as §3, §4, §5, §6

[10] = tested on: crabgrass; experiment: Test Example 3: weedkilling efficacy through soil treatment; D: crabgrass; conditions: soil treatment, treatment dosage 315 g/ha
Description: as §3, §4, §5, §6

[11] = tested on: Italian ryegrass; experiment: Test Example 3: weedkilling efficacy through soil treatment; I: Italian ryegrass; conditions: soil treatment, treatment dosage 315 g/ha
Description: as §3, §4, §5, §6

[12] = tested on: corn; experiment: Test Example 3: soil treatment, effect on crop; c: corn; conditions: soil treatment, treatment dosage 315 g/ha
Description: as §3, §4, §5, §6

[13] = tested on: soybean; experiment: Test Example 3: soil treatment, effect on crop; d: soybean; conditions: soil treatment, treatment dosage 315 g/ha
Description: as §3, §4, §5, §6

[14] = tested on: wild oat; experiment: Test Example 3: weedkilling efficacy through soil treatment; G: wild oat; conditions: soil treatment, treatment dosage 315 g/ha
Description: as §3, §4, §5, §6

[15] = tested on: barnyard grass; experiment: Test Example 1: weedkilling efficacy, preemergent weed treatment in the submerged state; A: barnyard grass
Procedure, shortened: as §2

[16] = tested on: wheat; experiment: Test Example 3: soil treatment, effect on crop; e: wheat; conditions: soil treatment, treatment dosage 315 g/ha
Description: as §3, §4, §5, §6

[17] = tested on: fig-leafed goosefoot; experiment: Test Example 3: weedkilling efficacy through soil treatment; M: fig-leafed goosefoot; conditions: soil treatment, treatment dosage 315 g/ha
Description: as §3, §4, §5, §6

[18] = tested on: bulrush; experiment: Test Example 1: weedkilling efficacy, preemergent weed treatment in the submerged state; B: bulrush
Procedure, shortened: as §2

[19] = tested on: barnyard grass; experiment: Test Example 2: weedkilling efficacy, growth period weed treatment in the submerged state; A: barnyard grass
Procedure, shortened: as §1

[20] = tested on: chickweed; experiment: Test Example 3: weedkilling efficacy through soil treatment; N: chickweed; conditions: soil treatment, treatment dosage 315 g/ha
Description: as §3, §4, §5, §6

[21] = tested on: directly sown rice; experiment: Test Example 3: soil treatment, effect on crop; b: directly sown rice; conditions: soil treatment, treatment dosage 315 g/ha
Description: as §3, §4, §5, §6

Structure (SMILES)	C (oval-leafed pondweed) weedkilling efficacy grade ([1]; treatment dosage 252 g/ha)	C: oval-leafed pondweed, weed kill grade ([2]; treatment dosage 252 g/ha)	L: redroot pigweed, weedkilling efficacy grade [3]	a: transplanted rice, effect on crop grade ([4]; treatment dosage 252 g/ha)	E: green foxtail, weedkilling efficacy grade [5]	B (bulrush) weedkilling efficacy grade ([6]; treatment dosage 252 g/ha)	H: black-grass, weedkilling efficacy grade [8]	K: Indian mallow, weedkilling efficacy grade [9]	D: crabgrass, weedkilling efficacy grade [10]	I: Italian ryegrass, weedkilling efficacy grade [11]	c: corn, effect on crop grade [12]	d: soybean, effect on crop grade [13]	G: wild oat, weedkilling efficacy grade [14]	A: barnyard grass, weed kill grade ([15]; treatment dosage 252 g/ha)	e: wheat, effect on crop grade [16]	M: fig-leafed goosefoot, weedkilling efficacy grade [17]	B: bulrush, weed kill grade ([18]; treatment dosage 252 g/ha)	A (barnyard grass) weedkilling efficacy grade ([19]; treatment dosage 252 g/ha)	N: chickweed, weedkilling efficacy grade [20]	C (oval-leafed pondweed) weedkilling efficacy grade ([2]; treatment dosage 252 g/ha)	further results
CC(C)(C(=O)Nc1cccc(Cl)n1)N1COCN(c2ccccc2)C1=O [A-2-07]	5 (weed kill ratio 90% or more, (practically complete withering))	5 (weed kill ratio 90% or more, (practically complete withering))	5 (weed kill ratio 90% or more, (practically complete withering))	4 (weed kill ratio 70% or more, less than 90%)	5 (weed kill ratio 90% or more, (practically complete withering))	5 (weed kill ratio 90% or more, (practically complete withering))	5 (weed kill ratio 90% or more, (practically complete withering))	0 (weed kill ratio 5% or less (practically no effect))	5 (weed kill ratio 90% or more, (practically complete withering))	5 (weed kill ratio 90% or more, (practically complete withering))	4 (weed kill ratio 70% or more, less than 90%)	4 (weed kill ratio 70% or more, less than 90%)	5 (weed kill ratio 90% or more, (practically complete withering))	5 (weed kill ratio 90% or more, (practically complete withering))	3 (weed kill ratio 40% or more, less than 70%)	4 (weed kill ratio 70% or more, less than 90%)	5 (weed kill ratio 90% or more, (practically complete withering))	4 (weed kill ratio 70% or more, less than 90%)	4 (weed kill ratio 70% or more, less than 90%)	–	f: beet, effect on crop grade [7]: 5 (weed kill ratio 90% or more, (practically complete withering))
CC(C)(C(=O)Nc1cc(Cl)cc(Br)n1)N1COCN(c2ccccc2)C1=O [A-2-24]	5 (weed kill ratio 90% or more, (practically complete withering))	5 (weed kill ratio 90% or more, (practically complete withering))	4 (weed kill ratio 70% or more, less than 90%)	0 (weed kill ratio 5% or less (practically no effect))	5 (weed kill ratio 90% or more, (practically complete withering))	5 (weed kill ratio 90% or more, (practically complete withering))	5 (weed kill ratio 90% or more, (practically complete withering))	4 (weed kill ratio 70% or more, less than 90%)	5 (weed kill ratio 90% or more, (practically complete withering))	5 (weed kill ratio 90% or more, (practically complete withering))	0 (weed kill ratio 5% or less (practically no effect))	1 (weed kill ratio 5% or more, less than 20%)	5 (weed kill ratio 90% or more, (practically complete withering))	5 (weed kill ratio 90% or more, (practically complete withering))	4 (weed kill ratio 70% or more, less than 90%)	4 (weed kill ratio 70% or more, less than 90%)	5 (weed kill ratio 90% or more, (practically complete withering))	5 (weed kill ratio 90% or more, (practically complete withering))	4 (weed kill ratio 70% or more, less than 90%)	–	b: directly sown rice, effect on crop grade [21]: 4 (weed kill ratio 70% or more, less than 90%)
CC1=C(c2ccccc2)C(=O)N(C(C)(C)C(=O)Nc2cc(Oc3ccccc3)cc(Cl)n2)CO1 [B-2-48]	–	–	–	–	–	–	–	–	–	–	–	–	–	–	–	–	–	–	–	–	C (oval-leafed pondweed) weedkilling efficacy grade ([1]; treatment dosage 266 g/ha): 0 (weed kill ratio 5% or less (practically no effect)); C (oval-leafed pondweed) weedkilling efficacy grade ([2]; treatment dosage 266 g/ha): 4 (weed kill ratio 70% or more, less than 90%); a (transplanted rice) effect on crop grade ([4]; treatment dosage 266 g/ha): 0 (weed kill ratio 5% or less (practically no effect)); B (bulrush) weedkilling efficacy grade ([6]; treatment dosage 266 g/ha): 2 (weed kill ratio 20% or more, less than 40%); A (barnyard grass) weedkilling efficacy grade ([15]; treatment dosage 266 g/ha): 5 (weed kill ratio 90% or more, (practically complete withering)); B (bulrush) weedkilling efficacy grade ([18]; treatment dosage 266 g/ha): 5 (weed kill ratio 90% or more, (practically complete withering)); A (barnyard grass) weedkilling efficacy grade ([19]; treatment dosage 266 g/ha): 0 (weed kill ratio 5% or less (practically no effect))
CC1=C(c2ccccc2)C(=O)N(C(C)(C)C(=O)Nc2cc(-c3ccccc3)ccn2)CO1 [B-2-59]	0 (weed kill ratio 5% or less (practically no effect))	–	–	–	–	1 (weed kill ratio 5% or more, less than 20%)	–	–	–	–	–	–	–	–	–	–	–	0 (weed kill ratio 5% or less (practically no effect))	–	2 (weed kill ratio 20% or more, less than 40%)	a (transplanted rice) effect on crop grade ([4]; treatment dosage 252 g/ha): 0 (weed kill ratio 5% or less (practically no effect)); A (barnyard grass) weedkilling efficacy grade ([15]; treatment dosage 252 g/ha): 2 (weed kill ratio 20% or more, less than 40%); B (bulrush) weedkilling efficacy grade ([18]; treatment dosage 252 g/ha): 4 (weed kill ratio 70% or more, less than 90%)
CC1=C(c2ccccc2)C(=O)N(C(C)(C)C(=O)Nc2cccc(-c3ccccc3)n2)CO1 [B-2-60]	3 (weed kill ratio 40% or more, less than 70%)	–	–	–	–	3 (weed kill ratio 40% or more, less than 70%)	–	–	–	–	–	–	–	–	–	–	–	4 (weed kill ratio 70% or more, less than 90%)	–	5 (weed kill ratio 90% or more, (practically complete withering))	a (transplanted rice) effect on crop grade ([4]; treatment dosage 252 g/ha): 0 (weed kill ratio 5% or less (practically no effect)); A (barnyard grass) weedkilling efficacy grade ([15]; treatment dosage 252 g/ha): 5 (weed kill ratio 90% or more, (practically complete withering)); B (bulrush) weedkilling efficacy grade ([18]; treatment dosage 252 g/ha): 5 (weed kill ratio 90% or more, (practically complete withering))

— US9738634B2, “Heterocyclic amide compound and herbicide” (SYNGENTA PARTICIPATIONS AG, priority 2013, dated 2017)
